Laboratory results taken from ChEMBL document CHEMBL1158513, “Identification and SAR of novel pyrrolo[1,2-a]pyrazin-1(2H)-one derivatives as inhibitors of poly(ADP-ribose) polymerase-1 (PARP-1)” (Bioorg Med Chem Lett, 2010).
pIC50: −log10 of the molar value. Where “and” joins values, the source holds several entries; their conditions need not be identical. Identical values can stand only once.

Experiments:
HeLa [1] = assay: Antiproliferative activity against BRCA1-deficient human HeLa cells after 7 days by celltiter-blue assay; type: functional; conditions: 168 h
HeLa [2] = assay: Antiproliferative activity against BRCA1-proficient human HeLa cells after 7 days by celltiter-blue assay; type: functional; conditions: 168 h
[3] = biological target: Poly [ADP-ribose] polymerase 1 (Homo sapiens, UniProt P09874); assay: Inhibition of PARP1 by topcount microplate scintillation counter
Chain of Poly [ADP-ribose] polymerase 1 (P09874 whole entry): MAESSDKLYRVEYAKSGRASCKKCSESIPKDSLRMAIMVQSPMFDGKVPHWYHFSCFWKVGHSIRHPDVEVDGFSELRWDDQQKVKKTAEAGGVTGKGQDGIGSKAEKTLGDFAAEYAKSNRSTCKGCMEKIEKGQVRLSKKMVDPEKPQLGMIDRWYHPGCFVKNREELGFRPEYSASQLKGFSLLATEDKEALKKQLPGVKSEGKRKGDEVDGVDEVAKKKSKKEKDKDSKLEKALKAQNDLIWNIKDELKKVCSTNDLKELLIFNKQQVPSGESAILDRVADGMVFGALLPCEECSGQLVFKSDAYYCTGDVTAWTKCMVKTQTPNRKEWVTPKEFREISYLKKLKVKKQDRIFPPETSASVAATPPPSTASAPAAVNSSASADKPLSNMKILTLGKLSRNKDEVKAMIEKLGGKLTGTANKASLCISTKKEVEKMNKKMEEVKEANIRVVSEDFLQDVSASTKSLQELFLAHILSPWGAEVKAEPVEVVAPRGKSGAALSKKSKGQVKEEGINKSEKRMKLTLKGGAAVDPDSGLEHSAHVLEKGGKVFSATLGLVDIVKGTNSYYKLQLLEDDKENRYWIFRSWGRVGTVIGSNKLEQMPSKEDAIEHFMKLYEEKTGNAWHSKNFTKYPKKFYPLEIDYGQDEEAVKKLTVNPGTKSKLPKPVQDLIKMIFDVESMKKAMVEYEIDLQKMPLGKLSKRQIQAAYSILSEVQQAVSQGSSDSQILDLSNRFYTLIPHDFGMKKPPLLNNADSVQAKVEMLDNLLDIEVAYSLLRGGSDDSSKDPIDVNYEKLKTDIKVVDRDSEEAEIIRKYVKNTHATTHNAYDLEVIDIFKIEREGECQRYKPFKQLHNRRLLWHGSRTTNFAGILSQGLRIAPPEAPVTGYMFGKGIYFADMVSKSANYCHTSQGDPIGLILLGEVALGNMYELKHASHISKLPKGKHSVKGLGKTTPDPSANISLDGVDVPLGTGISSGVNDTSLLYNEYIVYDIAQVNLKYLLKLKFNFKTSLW

CYP3A4 = CYP3A4 (Homo sapiens, UniProt P08684); assay: Inhibition of CYP3A4 at 10 uM; type: ADME
Chain of CYP3A4 (P08684 whole entry): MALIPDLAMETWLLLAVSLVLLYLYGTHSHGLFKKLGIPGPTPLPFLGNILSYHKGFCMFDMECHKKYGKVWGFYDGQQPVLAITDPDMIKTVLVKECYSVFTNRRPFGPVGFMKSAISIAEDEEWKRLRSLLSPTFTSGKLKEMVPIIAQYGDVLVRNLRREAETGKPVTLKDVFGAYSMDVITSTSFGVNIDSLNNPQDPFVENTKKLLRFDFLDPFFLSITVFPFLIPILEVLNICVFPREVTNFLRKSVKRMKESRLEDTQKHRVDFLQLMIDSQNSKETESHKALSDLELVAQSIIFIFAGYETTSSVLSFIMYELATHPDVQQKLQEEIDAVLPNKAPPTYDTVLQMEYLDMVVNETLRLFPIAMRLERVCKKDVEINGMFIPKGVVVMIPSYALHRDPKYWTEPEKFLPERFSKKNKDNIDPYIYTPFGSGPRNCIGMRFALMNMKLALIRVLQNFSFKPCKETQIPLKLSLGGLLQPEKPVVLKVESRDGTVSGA

[4] = Intrinsic clearance in rat liver microsomes; type: ADME, Microsome
[5] = Clearance in rat; type: ADME, organism-based; conditions: in vivo
HeLa [6] = assay: Selectivity ratio of CC50 for BRCA1-proficient human HeLa to CC50 for BRCA1-deficient human HeLa cells; type: functional
[7] = Lipophilicity, log D of the compound; type: physicochemical; conditions: octanol/water

SMILES | pIC50 [3] | logD [7] | CC50 (HeLa [1]) [nM] | CC50 (HeLa [2]) [µM] | inhibition at 10 µM (CYP3A4) [%] | microsomal CLint [4] [µL/min/mg] | clearance [5] [mL/min/kg] | Selectivity ratio (HeLa [6])
O=C(c1cc(Cc2c[nH]c(=O)c3cc(Cl)c(Cl)n23)ccc1F)N1CCN(c2ncccn2)CC1 | 8.51 | – | 130 | 2.8 | – | – | – | –
O=C(c1cc(Cc2c[nH]c(=O)c3cc(Cl)c(Cl)n23)ccc1F)N1CCC(N2CCCC2)CC1 | 8.27 | – | 120 | > 5 | 30 | 135 | 94 | –
O=C(c1cc(Cc2c[nH]c(=O)c3cc(Cl)c(Cl)n23)ccc1F)N1CCC(N2CCC2)CC1 | 9.00 | – | 180 | > 10 | – | – | – | –
O=C(c1cc(Cc2c[nH]c(=O)c3cc(Cl)c(Cl)n23)ccc1F)N1CCCCC1 | 6.70 | – | – | – | – | – | – | –
O=C(c1cc(Cc2c[nH]c(=O)c3cc(Cl)c(Cl)n23)ccc1F)N1CCC2(CCN2)CC1 | 8.09 | – | 2300 | > 5 | – | – | – | –
O=C(c1cc(Cc2c[nH]c(=O)c3cc(Cl)c(Cl)n23)ccc1F)N1CCN(C2CCCCC2)CC1 | 7.85 | – | 970 | > 5 | – | – | – | –
CCN(CC)C1CCN(C(=O)c2cc(Cc3c[nH]c(=O)c4cc(Cl)c(Cl)n34)ccc2F)CC1 | 7.66 | – | 1100 | > 5 | – | – | – | –
O=C(c1cc(Cc2c[nH]c(=O)c3cc(Cl)c(Cl)n23)ccc1F)N1CCN(c2cc3ccccc3cn2)CC1 | 8.74 | – | 320 | 1.2 | – | – | – | –
CN1CCN(C(=O)c2cc(Cc3c[nH]c(=O)c4cc(Cl)c(Cl)n34)ccc2F)CC1 | 7.39 | – | – | – | – | – | – | –
N#Cc1cccnc1N1CCN(C(=O)c2cc(Cc3c[nH]c(=O)c4cc(Cl)c(Cl)n34)ccc2F)CC1 | 9.15 | – | 62 | 1.6 | – | – | – | 25
COc1cccnc1N1CCN(C(=O)c2cc(Cc3c[nH]c(=O)c4cc(Cl)c(Cl)n34)ccc2F)CC1 | 7.82 | – | 2700 | > 5 | – | – | – | –
O=C(c1cc(Cc2c[nH]c(=O)c3cc(Cl)c(Cl)n23)ccc1F)N1CCN(c2ccccc2F)CC1 | 7.62 | – | > 10000 | > 10 | – | – | – | –
CC(=O)N1CCCN(C(=O)c2cc(Cc3c[nH]c(=O)c4cc(Cl)c(Cl)n34)ccc2F)CC1 | 7.72 | – | 5700 | > 20 | – | – | – | –
CC(C)(C)C(=O)N1CCN(C(=O)c2cc(Cc3c[nH]c(=O)c4cc(Cl)c(Cl)n34)ccc2F)CC1 | 9.00 | – | 340 | > 5 | – | – | – | –
O=C(c1cc(Cc2c[nH]c(=O)c3cc(Cl)c(Cl)n23)ccc1F)N1CCN(C(=O)C2CCCC2)CC1 | 8.43 | – | 270 | > 5 | – | – | – | –
O=C(c1cc(Cc2c[nH]c(=O)c3cc(Cl)c(Cl)n23)ccc1F)N1CCOCC1 | 7.23 | – | – | – | – | – | – | –
CC(C)CN1CCN(C(=O)c2cc(Cc3c[nH]c(=O)c4cc(Cl)c(Cl)n34)ccc2F)CC1 | 7.85 | – | 250 | > 10 | – | – | – | –
CN(C)CCN1CCN(C(=O)c2cc(Cc3c[nH]c(=O)c4cc(Cl)c(Cl)n34)ccc2F)CC1 | 7.74 | – | > 10000 | > 10 | – | – | – | –
O=C(c1cc(Cc2c[nH]c(=O)c3cc(Cl)c(Cl)n23)ccc1F)N1CCC2(CCCCN2)CC1 | 8.21 | – | 220 | > 5 | – | – | – | –
N#Cc1ccc(N2CCN(C(=O)c3cc(Cc4c[nH]c(=O)c5cc(Cl)c(Cl)n45)ccc3F)CC2)nc1 | 7.85 | – | 200 | 4.2 | – | – | – | –
CNC1CCN(C(=O)c2cc(Cc3c[nH]c(=O)c4cc(Cl)c(Cl)n34)ccc2F)CC1 | 8.64 | – | 400 | > 5 | – | – | – | –
O=C(c1cc(Cc2c[nH]c(=O)c3cc(Cl)cn23)ccc1F)N1CCCNCC1 | 9.00 | 0.58 | 2500 | > 20 | – | – | – | –
O=C(c1cc(Cc2c[nH]c(=O)c3cc(Cl)c(Cl)n23)ccc1F)N1CCC2(CCCN2)CC1 | – | – | 48 | > 10 | – | – | – | 50

The remaining molecules from weak to strong by pIC50 [3], led by results:

pIC50 [3] | logD [7] | SMILES | CC50 (HeLa [1]) [nM] | CC50 (HeLa [2]) [µM] | inhibition at 10 µM (CYP3A4) [%] | microsomal CLint [4] [µL/min/mg] | clearance [5] [mL/min/kg] | Selectivity ratio (HeLa [6])
7.89 | – | CCCCN1CCN(C(=O)c2cc(Cc3c[nH]c(=O)c4cc(Cl)c(Cl)n34)ccc2F)CC1 | 1600 | > 10 | – | – | – | –
7.89 | – | O=C(c1cc(Cc2c[nH]c(=O)c3cc(Cl)c(Cl)n23)ccc1F)N1CCN(CCO)CC1 | > 5000 | > 10 | – | – | – | –
7.92 | – | O=C(c1cc(Cc2c[nH]c(=O)c3cc(Cl)c(Cl)n23)ccc1F)N1CCN(c2cccnc2)CC1 | > 5000 | > 5 | – | – | – | 20
8.05 | – | O=C(c1cc(Cc2c[nH]c(=O)c3cc(Cl)c(Cl)n23)ccc1F)N1CCC2(CC1)NCNC2=O | > 2500 | > 5 | – | – | – | –
8.05 | – | CCS(=O)(=O)N1CCN(C(=O)c2cc(Cc3c[nH]c(=O)c4cc(Cl)c(Cl)n34)ccc2F)CC1 | 3000 | > 5 | – | – | – | –
8.14 | – | CN(C)C(=O)N1CCN(C(=O)c2cc(Cc3c[nH]c(=O)c4cc(Cl)c(Cl)n34)ccc2F)CC1 | 670 | > 10 | – | – | – | –
8.15 | – | NC1CCN(C(=O)c2cc(Cc3c[nH]c(=O)c4cc(Cl)c(Cl)n34)ccc2F)CC1 | 3800 | > 10 | – | – | – | –
8.20 | – | CC(=O)N1CCN(C(=O)c2cc(Cc3c[nH]c(=O)c4cc(Cl)c(Cl)n34)ccc2F)CC1 | 700 | > 10 | – | – | – | –
8.29 | – | CN(C)C(C)(C)C(=O)N1CCN(C(=O)c2cc(Cc3c[nH]c(=O)c4cc(Cl)c(Cl)n34)ccc2F)CC1 | 200 | > 5 | – | – | – | –
8.30 | – | CN1CCCN(C(=O)c2cc(Cc3c[nH]c(=O)c4cc(Cl)c(Cl)n34)ccc2F)CC1 | 1100 | > 20 | – | – | – | –
8.40 | – | O=C(c1cc(Cc2c[nH]c(=O)c3c(Cl)cc(Cl)n23)ccc1F)N1CCCNCC1 | 18000 | > 20 | – | – | – | –
8.49 | – | CCC(=O)N1CCN(C(=O)c2cc(Cc3c[nH]c(=O)c4cc(Cl)c(Cl)n34)ccc2F)CC1 | 1200 | > 5 | – | – | – | –
8.51 | – | O=C(c1ncc[nH]1)N1CCN(C(=O)c2cc(Cc3c[nH]c(=O)c4cc(Cl)c(Cl)n34)ccc2F)CC1 | 500 | > 5 | – | – | – | –
8.55 | – | O=C(c1cc(Cc2c[nH]c(=O)c3cc(Cl)c(Cl)n23)ccc1F)N1CCN(c2ccccn2)CC1 | 430 | > 10 | – | – | – | –
8.59 | – | CN(C)C1CCN(C(=O)c2cc(Cc3c[nH]c(=O)c4cc(Cl)c(Cl)n34)ccc2F)CC1 | 1600 | > 10 | – | – | – | –
8.59 | 0.91 | O=C(c1cc(Cc2c[nH]c(=O)c3cc(Cl)c(Cl)n23)ccc1F)N1CCCNCC1 | 170 | > 20 | – | – | – | –
8.60 | – | CN(C)CC(=O)N1CCN(C(=O)c2cc(Cc3c[nH]c(=O)c4cc(Cl)c(Cl)n34)ccc2F)CC1 | 3500 | > 10 | – | – | – | –
8.62 | – | CN(C)S(=O)(=O)N1CCN(C(=O)c2cc(Cc3c[nH]c(=O)c4cc(Cl)c(Cl)n34)ccc2F)CC1 | 910 | > 10 | – | – | – | –
8.62 | – | O=C(c1ccccn1)N1CCN(C(=O)c2cc(Cc3c[nH]c(=O)c4cc(Cl)c(Cl)n34)ccc2F)CC1 | 150 | > 5 | – | – | – | 30
8.64 | – | O=C(c1cc(Cc2c[nH]c(=O)c3cc(Cl)c(Cl)n23)ccc1F)N1CCNCC1 | 180 | > 20 | – | – | – | –
8.68 | – | CNC(C)(C)C(=O)N1CCN(C(=O)c2cc(Cc3c[nH]c(=O)c4cc(Cl)c(Cl)n34)ccc2F)CC1 | 53 | > 5 | – | – | > 200 | 100 and 50
8.68 | – | CC(C)C(=O)N1CCN(C(=O)c2cc(Cc3c[nH]c(=O)c4cc(Cl)c(Cl)n34)ccc2F)CC1 | 150 | > 5 | – | – | – | 30
8.70 | – | CN(C)C(=O)C(=O)N1CCN(C(=O)c2cc(Cc3c[nH]c(=O)c4cc(Cl)c(Cl)n34)ccc2F)CC1 | 1800 | > 10 | – | – | – | –
8.74 | -0.89 | O=C(c1cc(Cc2c[nH]c(=O)c3cccn23)ccc1F)N1CCCNCC1 | > 20000 | > 20 | – | – | – | –
8.80 | – | O=C(c1cc(Cc2c[nH]c(=O)c3c(Cl)c(Cl)cn23)ccc1F)N1CCCNCC1 | 220 | > 20 | – | – | – | –
8.80 | – | Cc1cc2c(=O)[nH]cc(Cc3ccc(F)c(C(=O)N4CCCNCC4)c3)n2c1 | 3400 | > 20 | – | – | – | –
8.85 | – | O=C(c1cc(Cc2c[nH]c(=O)c3cc(Cl)c(Cl)n23)ccc1F)N1CCN(c2ncnc3ccccc23)CC1 | 60 | 0.92 | – | – | – | –
9.00 | – | O=C(c1cc(Cc2c[nH]c(=O)c3cc(Cl)c(Cl)n23)ccc1F)N1CCN(c2ncc3ccccc3n2)CC1 | 190 | 0.77 | – | – | – | –
